Test results reported in US5525626A (priority 1989, dated 1996).

How the values were obtained:
[1] = system: PDGF receptors and EGF system; experiment: expression of receptors / EGF system; type: cell-based; settings: Seliger et al., unpublished results
Text: (§1) In connection with the neoplastic transformation and increased proliferation rate of glioblastoma cells, two autocrinic loops, the EGF and the PDGF system, are discussed.

PDFG-B gene = experiment: transcription (mRNA level); type: cell-based; settings: Seliger et al., unpublished results; FIG. 8
Text: as §1

PDFG-A gene = experiment: transcription (mRNA level); type: cell-based; settings: Seliger et al., unpublished results; FIG. 8
Text: as §1

[2] = system: brain-tumor cells (glioblastoma cells); experiment: growth inhibition of brain-tumor cells; type: cell-based; settings: Tables 1 to 3
At T 20 = experiment: 3H-thymidine assay; type: cell-based; settings: Mus musculus, AtT20
Outline: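 Proliferation of AtT20 tumor cells was assessed by 3H-thymidine incorporation. 10^4 cells per well were seeded in 24-well plates and grown about 48 hours to half-confluence, then given medium with the active substance. Cells were washed twice in ice-cold PBS, high-molecular-weight 3H-radioactivity was precipitated with 5% trichloroacetic acid for one hour at 4° C, solubilized in 0.3M NaOH and counted.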

[3] = system: MCF-7 breast cancer cells; experiment: 3H-thymidine assay; type: cell-based; settings: Homo sapiens, MCF7
Outline: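 Antiproliferative activity against human MCF-7 breast cancer cells was measured by 3H-thymidine incorporation. Cells (10^4 per well) were seeded in 24-well plates, grown about 48 hours to half-confluence, then given medium containing the test substance. After two ice-cold PBS washes, high-molecular-weight 3H-radioactivity was precipitated with 5% trichloroacetic acid for one hour at 4° C, solubilized in 0.3M NaOH and counted; incorporation was compared with untreated cells.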

CAKI-1 cells = experiment: 3H-thymidine assay; type: cell-based; settings: Homo sapiens, CAKI-1
Outline: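 CAKI-1 human tumor cells were seeded at 10^4 cells per well in 24-well plates and grown about 48 hours until half-confluent. The medium was then swapped for one containing the test substance. Cells were washed twice in ice-cold PBS, and macromolecular 3H-radioactivity was precipitated with 5% trichloroacetic acid for one hour at 4° C.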

PC-3 cells = experiment: cell growth, combination with TNF; type: cell-based; settings: 7-OH-1,2-BP 500 μM/ml; TNF 1 nM/ml; combination 500 μM/1 nM; 4 days; 3×10^4 cells/well; control 18.58 + 1.05
Text: (§4) Various cell lines (DU-145, PC-3 and LNCaP) from prostate carcinomas were used.
(§5) Initial cell count: 3×10^4 cells/well; exposure period: DU-145, PC-3: 4 days; LNCaP: 6 days

[4] = system: Tp 242 MG glioblastoma cells; experiment: 3H-thymidine assay; type: cell-based; settings: Homo sapiens
A 431 cells = experiment: growth curve, epidermoidal carcinoma cells; type: cell-based, human; settings: for Cell count: 10 μM/ml
Protocol: (§2) The neuroblastoma cell line and the three glioblastoma cell lines were cultivated in Ham's F10 medium enriched with 10% fetal calf serum (FCS) and the usual quantity of penicillin, streptomycin (Pen/Strep) and glutamine. The epidermoidal cell line was cultivated in modified Eagle's Medium (MEM), likewise enriched with 10% (FCS) and the usual quantity of glutamine and Pen/Strep.
(§3) In each case 5×10^4 cells were plated out in T25 bottles, the untreated cells being incubated in analogous conditions as control. The cell count was microscopically determined after 3, 5, 7, 10 and 12 days.

[5] = system: U 178 MG, TP 410 N, TP 242 MG, TP 336 MG and A 431 cells; experiment: growth curves of five tumor cell lines, comparison with coumarin; type: cell-based, human; settings: corresponding concentrations, up to 12 days
Protocol: as §2, §3

LNCap cells = experiment: cell growth, combination with TNF; type: cell-based, human; settings: 7-OH-1,2-BP 500 μM/ml; TNF 1 nM/ml; combination 500 μM/1 nM; 6 days; 3×10^4 cells/well; control 61.40 + 3.70
Text: as §4, §5

A-375 melanoma cells = experiment: 3H-thymidine assay; type: cell-based; settings: Homo sapiens, A-375
g-UVW cells = experiment: antineoplastic effect on human anaplastic astrocytoma cells (Table 1, Example 3); type: cell-based
Text: The process as per Example 2 was repeated with the exception that cells of the 6-UVW line from human anaplastic astrocytoma were used and enriched in DMEM:HAM's F 12 medium (1:1) with L-glutamine and 10% FCS.

[6] = 1 μM/ml, read-out: 3H-thymidine tracer (%) of control
[7] = 2 μM/ml, read-out: 3H-thymidine tracer (%) of control
[8] = 4 μM/ml, read-out: 3H-thymidine tracer (%) of control
[9] = 8 μM/ml, read-out: 3H-thymidine tracer (%) of control
[10] = 16 μM/ml, read-out: 3H-thymidine tracer (%) of control
[11] = 25 μM/ml, read-out: 3H-thymidine tracer (%) of control
[12] = 50 μM/ml, read-out: 3H-thymidine tracer (%) of control
[13] = 100 μM/ml, read-out: 3H-thymidine tracer (%) of control
[14] = 250 μM/ml, read-out: 3H-thymidine tracer (%) of control
[15] = 500 μM/ml, read-out: 3H-thymidine tracer (%) of control
[16] = Table 4, read-out: active substance concentration at which 3H-thymidine insertion was 50% inhibited
[17] = Table 4, *: maximum usable dosage, no 50% inhibition, read-out: active substance concentration at which 3H-thymidine insertion was 50% inhibited

O=c1ccc2ccc(O)cc2o1 [7-OH-1,2-BP, 7-hydroxy-1,2-benzopyrone]
expression of PDGF receptors and of the EGF system [1]: not influenced | transcription of gene coding for PDFG-B (mRNA level) (PDFG-B gene): inhibited | transcription of gene coding for PDFG-A (mRNA level) (PDFG-A gene): inhibited | growth-inhibiting effect on brain-tumor cells [2]: strong growth-inhibiting effect on brain-tumor cells | activity at 1 µM (At T 20; [6]): 98% | activity at 2 µM (At T 20; [7]): 89% | activity at 4 µM (At T 20; [8]): 85% | activity at 8 µM (At T 20; [9]): 78% | activity at 16 µM (At T 20; [10]): 65% | activity at 25 µM (At T 20; [11]): 60% | activity at 50 µM (At T 20; [12]): 62% | activity at 100 µM (At T 20; [13]): 44% | activity at 250 µM (At T 20; [14]): 38% | activity at 500 µM (At T 20; [15]): 31% | IC50 (At T 20; [16]): 50 µM | activity at 1 µM [3, 6]: 98% | activity at 2 µM [3, 7]: 94% | activity at 4 µM [3, 8]: 88% | activity at 8 µM [3, 9]: 82% | activity at 16 µM [3, 10]: 75% | activity at 25 µM [3, 11]: 69% | activity at 50 µM [3, 12]: 62% | activity at 100 µM [3, 13]: 51% | activity at 250 µM [3, 14]: 43% | activity at 500 µM [3, 15]: 29% | IC50 [3, 17]: 100 µM | activity at 1 µM (CAKI-1 cells; [6]): 100% | activity at 2 µM (CAKI-1 cells; [7]): 98% | activity at 4 µM (CAKI-1 cells; [8]): 90% | activity at 8 µM (CAKI-1 cells; [9]): 81% | activity at 16 µM (CAKI-1 cells; [10]): 76% | activity at 25 µM (CAKI-1 cells; [11]): 62% | activity at 50 µM (CAKI-1 cells; [12]): 57% | activity at 100 µM (CAKI-1 cells; [13]): 49% | activity at 150 µM (CAKI-1 cells; 150 μM/ml, read-out: 3H-thymidine tracer (%) of control): 44% | activity at 500 µM (CAKI-1 cells; [15]): 40% | IC50 (CAKI-1 cells; [17]): 100 µM | Cell growth (PC-3 cells): 11.51 + 0.63 | activity at 1 µM ([4]; 1 μM/ml, read-out: 3H-thymidine insertion (%) of control): 93% | activity at 2 µM ([4]; 2 μM/ml, read-out: 3H-thymidine insertion (%) of control): 91% | activity at 4 µM ([4]; 4 μM/ml, read-out: 3H-thymidine insertion (%) of control): 91% | activity at 8 µM ([4]; 8 μM/ml, read-out: 3H-thymidine insertion (%) of control): 84% | activity at 16 µM ([4]; 16 μM/ml, read-out: 3H-thymidine insertion (%) of control): 73% | activity at 25 µM ([4]; 25 μM/ml, read-out: 3H-thymidine insertion (%) of control): 55% | activity at 50 µM ([4]; 50 μM/ml, read-out: 3H-thymidine insertion (%) of control): 43% | activity at 100 µM ([4]; 100 μM/ml, read-out: 3H-thymidine insertion (%) of control): 39% | activity at 250 µM ([4]; 250 μM/ml, read-out: 3H-thymidine insertion (%) of control): 35% | activity at 500 µM ([4]; 500 μM/ml, read-out: 3H-thymidine insertion (%) of control): 32% | IC50 [4, 16]: 25 µM | Cell count (A 431 cells; after 3 days, control 6): 4 × 10^4 | Cell count (A 431 cells; after 5 days, control 24): 10 × 10^4 | Cell count (A 431 cells; after 7 days, control 45): 3 × 10^4 | Cell count (A 431 cells; after 10 days, control 56): 12 × 10^4 | Cell count (A 431 cells; after 12 days, control 87): 21 × 10^4 | inhibition at 10 µM (A 431 cells; Homo sapiens, A-431, 288 h, 10 μM/ml (Table 2), read-out: % growth inhibition compared with control after 12 days): 76% | growth-inhibiting activity (growth curve) versus control [5]: developed growth-inhibiting activity | Cell growth (LNCap cells): 11.0 + 1.10 | activity at 1 µM (A-375 melanoma cells; [6]): 100% | activity at 2 µM (A-375 melanoma cells; [7]): 92% | activity at 4 µM (A-375 melanoma cells; [8]): 86% | activity at 8 µM (A-375 melanoma cells; [9]): 81% | activity at 16 µM (A-375 melanoma cells; [10]): 72% | activity at 25 µM (A-375 melanoma cells; [11]): 64% | activity at 50 µM (A-375 melanoma cells; [12]): 53% | activity at 100 µM (A-375 melanoma cells; [13]): 49% | activity at 250 µM (A-375 melanoma cells; [14]): 47% | activity at 500 µM (A-375 melanoma cells; [15]): 44% | IC50 (A-375 melanoma cells; [17]): 100 µM | % Growth inhibition compared with control (g-UVW cells; 200 μmol/ml, after 10 days): 40% | cytostatic effect on human anaplastic astrocytoma cells (g-UVW cells; Example 3, FIG. 2): has a cytostatic effect on human anaplastic astrocytoma cells
